# Results taken from US12528812B2 (Genentech, Inc., priority 2020, dated 2026).
# Key:
# [1] = tested on: IL-13-stimulated STAT6 phosphorylation in human lung bronchial epithelial BEAS-2B cell line; test: P-STAT6 BEAS-2B + IL-13 cell assay; format: cell-based; details: Homo sapiens, BEAS-2B, BEAS2B cells, IL13 stimulation; read-out: Cellular JAK1 PSTAT6 BEAS2B + IL13
# Description: In order to study the effect of JAK1 inhibitors in a cell line that is relevant to the cell biology of human asthma, an IL-13-stimulated STAT6 phosphorylation assay in the human lung bronchial epithelial BEAS-2B cell line was developed.
# BEAS-2B cells (ATCC′ CRL-9609™) were grown in Bronchial Epithelial Growth Medium (BEGM) (Lonza Catalog No. CC-3170; Walkersville, MD; or PromoCell Catalog No. C-21060; Heidelberg, Germany). Test compound stock solutions (0.5 mM in DMSO) were serially diluted 1:2 in DMSO to generate a 10-point concentration curve (at 500× test concentration), which was further diluted by a 50-fold dilution step in BEGM to generate a 10× concentration curve (in 2% DMSO). Cells were plated at 100,000 cells/well in 200 μL of BEGM in 96-well plates and incubated for 48 hours at 37° C. in a humidified incubator. Medium was aspirated from the cells and replaced with 70 μL of fresh BEGM. Diluted test compound (10 μL; or 2% DMSO in assay medium) was added to the cells, and the plates were incubated for 1 hour at 37° C. in a humidified incubator. Twenty μL of 250 ng/mL human recombinant IL-13 (Bio Techne Catalog No. 213-ILB) was then added to the cells and incubated for 15 minutes at 37° C. Medium was aspirated from the cells and 60 μL of ice-cold 1× cell lysis buffer (Cell Signaling Technologies; Catalog No. 9803S) containing 1 mM PMSF was added to the cells. Assay plates were incubated at −80° C. for at least 1 hour. P-STAT6 was measured by coating GAR plates (MSD; Catalog No. L45RA-1) with rabbit anti-human total STAT6 antibody (Cell Signaling Technologies; Catalog No. 9362S), incubating the cell lysates in the coated plates overnight at 4° C., and then detecting with mouse anti-phospho-STAT6 (Tyr641) Clone 16E12 antibody (Millipore; Catalog No. 05-590, custom labeled by MSD with SULFO-tag) using standard MSD plate processing, washing, and detection protocols. Plates were read on the MESO SECTOR 5600.
# Data analysis was performed by subtracting negative control values from all wells and determining percent of control using the positive control values; the IC50 was determined with a four-parameter logistic fit model as shown in Equation 4.
# [2] = target: T1, recombinant human JAK1 kinase domain protein (Residues 854-1154) (Homo sapiens, UniProt P23458); test: JAK1 biochemical assay (LabChip mobility shift, Ki); details: read-out: Biochem JAK1 Ki
# T1 construct: human JAK1 kinase domain protein (Residues 854-1154); purchased Proteros Biostructures GmbH (Martinsried, Germany); host or cells: insect cells
# [3] = target: Recombinant human JAK2 kinase domain protein (Residues 812-1132) (Homo sapiens, UniProt O60674); test: JAK2 biochemical assay (LabChip mobility shift, Ki); details: Biochem JAK2 Ki
# Chain of Recombinant human JAK2 kinase domain protein (Residues 812-1132) (O60674 812-1132): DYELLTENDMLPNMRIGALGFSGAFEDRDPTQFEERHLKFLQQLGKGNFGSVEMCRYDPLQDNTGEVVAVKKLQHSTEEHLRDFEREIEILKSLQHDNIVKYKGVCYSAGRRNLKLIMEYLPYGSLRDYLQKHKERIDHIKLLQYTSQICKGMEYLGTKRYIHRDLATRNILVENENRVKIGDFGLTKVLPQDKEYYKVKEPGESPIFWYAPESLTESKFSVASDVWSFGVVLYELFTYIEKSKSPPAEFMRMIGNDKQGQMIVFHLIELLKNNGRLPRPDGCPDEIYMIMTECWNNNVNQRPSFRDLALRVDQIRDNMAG
# T1 sequence (P23458 854-1154): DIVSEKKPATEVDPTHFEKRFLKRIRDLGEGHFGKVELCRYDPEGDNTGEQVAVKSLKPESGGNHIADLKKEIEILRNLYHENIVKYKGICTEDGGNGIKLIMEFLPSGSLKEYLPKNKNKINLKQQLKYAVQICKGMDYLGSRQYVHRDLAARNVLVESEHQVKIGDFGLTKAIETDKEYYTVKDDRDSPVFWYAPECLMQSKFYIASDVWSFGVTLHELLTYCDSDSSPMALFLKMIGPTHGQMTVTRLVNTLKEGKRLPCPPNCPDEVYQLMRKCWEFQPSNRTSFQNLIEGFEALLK
Ki [2] [nM],Ki [3] [nM],SMILES,IC50 [1] [nM]
0.95,0.43,"Cn1cc(NC(=O)c2cnn3cccnc23)c(-c2cc(Oc3cccc([C@H]4COCCN4)c3)ccc2OC(F)F)n1 (stereo in doubt) [Example 33, N-[3-[2-(difluoromethoxy)-5-[3-[rac-(3S)-morpholin-3-yl]phenoxy]phenyl]-1-methyl-pyrazol-4-yl]pyrazolo[1,5-a]pyrimidine-3-carboxamide]",62
0.2,0.23,"Cc1cc(Oc2ccc(OC(F)F)c(-c3nn(C)cc3NC(=O)c3cnn4cccnc34)c2)cc(C2(O)CNC2)c1 [Example 101, N-[3-[2-(difluoromethoxy)-5-[3-(3-hydroxyazetidin-3-yl)-5-methyl-phenoxy]phenyl]-1-methyl-pyrazol-4-yl]pyrazolo[1,5-a]pyrimidine-3-carboxamide]",180
1.3,0.4,"Cc1cc(Oc2ccc(OC(F)F)c(-c3nn(C)cc3NC(=O)c3cnn4cccnc34)c2)ccc1C(=O)N1CCN(C)CC1 [Example 85, N-[3-[2-(difluoromethoxy)-5-[3-methyl-4-(4-methylpiperazine-1-carbonyl)phenoxy]phenyl]-1-methyl-pyrazol-4-yl]pyrazolo[1,5-a]pyrimidine-3-carboxamide]",110
5.5,3.1,"CN1CC(CC#N)(c2ccc(Oc3ccc(OC(F)F)c(-c4nn(C)cc4NC(=O)c4cnn5cccnc45)c3)cc2)C1 [Example 145, N-[3-[5-[4-[3-(cyanomethyl)-1-methyl-azetidin-3-yl]phenoxy]-2-(difluoromethoxy)phenyl]-1-methyl-pyrazol-4-yl]pyrazolo[1,5-a]pyrimidine-3-carboxamide]",160
0.51,0.25,"CN1CCc2ccc(Oc3ccc(OC(F)F)c(-c4n[nH]cc4NC(=O)c4cnn5cccnc45)c3)cc2C1 [Example 36, N-[3-[2-(difluoromethoxy)-5-[(2-methyl-3,4-dihydro-1H-isoquinolin-7-yl)oxy]phenyl]-1H-pyrazol-4-yl]pyrazolo[1,5-a]pyrimidine-3-carboxamide]",11
0.61,0.26,"Cc1cc(Oc2ccc(OC(F)F)c(-c3nn(C)cc3NC(=O)c3cnn4cccnc34)c2)ccc1C(=O)N(C)C [Example 74, N-[3-[2-(difluoromethoxy)-5-[4-(dimethylcarbamoyl)-3-methyl-phenoxy]phenyl]-1-methyl-pyrazol-4-yl]pyrazolo[1,5-a]pyrimidine-3-carboxamide]",30
0.21,0.22,"Cn1cc(NC(=O)c2cnn3cccnc23)c(-c2cc(Oc3ccc4c(c3)CNCC4)ccc2OC(F)F)n1 [Example 150, N-[3-[2-(difluoromethoxy)-5-(1,2,3,4-tetrahydroisoquinolin-7-yloxy)phenyl]-1-methyl-pyrazol-4-yl]pyrazolo[1,5-a]pyrimidine-3-carboxamide]",16
0.18,0.096,"O=C(Nc1c[nH]nc1-c1cc(Oc2ccccc2)ccc1OC(F)F)c1cnn2cccnc12 [Example 1, N-[3-[2-(difluoromethoxy)-5-phenoxy-phenyl]-1H-pyrazol-4-yl]pyrazolo[1,5-a]pyrimidine-3-carboxamide]",–

# Further lines, the compound ahead of its results:
SMILES,Ki [2] [nM],Ki [3] [nM],IC50 [1] [nM]
"COCCNCc1cccc(Oc2ccc(OC(F)F)c(-c3nn(C)cc3NC(=O)c3cnn4cccnc34)c2)c1 [Example 27, N-[3-[2-(difluoromethoxy)-5-[3-[(2-methoxyethylamino)methyl]phenoxy]phenyl]-1-methyl-pyrazol-4-yl]pyrazolo[1,5-a]pyrimidine-3-carboxamide]",0.73,0.55,20
"Cn1cc(NC(=O)c2cnn3cccnc23)c(-c2cc(Oc3ccc(CN4CCCC[C@@H]4CO)cc3)ccc2OC(F)F)n1 (racemic) [Example 166, N-[3-[2-(difluoromethoxy)-5-[4-[[rac-(2R)-2-(hydroxymethyl)-1-piperidyl]methyl]phenoxy]phenyl]-1-methyl-pyrazol-4-yl]pyrazolo[1,5-a]pyrimidine-3-carboxamide]",2.5,0.99,32
"CN1CC(O)(c2cc(Oc3ccc(OC(F)F)c(-c4nn(C)cc4NC(=O)c4cnn5cccnc45)c3)cc(C3CC3)c2)C1 [Example 110, N-[3-[5-[3-cyclopropyl-5-(3-hydroxy-l-methyl-azetidin-3-yl)phenoxy]-2-(difluoromethoxy)phenyl]-1-methyl-pyrazol-4-yl]pyrazolo[1,5-a]pyrimidine-3-carboxamide]",0.69,0.36,30
"CN(CCN1CCOCC1)C(=O)c1cccc(Oc2ccc(OC(F)F)c(-c3nn(C)cc3NC(=O)c3cnn4cccnc34)c2)c1 [Example 92, N-[3-[2-(difluoromethoxy)-5-[3-[methyl(2-morpholinoethyl)carbamoyl]phenoxy]phenyl]-1-methyl-pyrazol-4-yl]pyrazolo[1,5-a]pyrimidine-3-carboxamide]",1.1,0.68,56
"CCn1cc(NC(=O)c2cnn3cccnc23)c(-c2cc(Oc3cnn(CC4(O)CN(C)C4)c3)ccc2OC(F)F)n1 [Example 208, N-[3-[2-(difluoromethoxy)-5-[1-[(3-hydroxy-1-methyl-azetidin-3-yl)methyl]pyrazol-4-yl]oxy-phenyl]-1-ethyl-pyrazol-4-yl]pyrazolo[1,5-a]pyrimidine-3-carboxamide]",1.2,1.2,72
"CN(C)CCN(C)C(=O)c1cccc(Oc2ccc(OC(F)F)c(-c3nn(C)cc3NC(=O)c3cnn4cccnc34)c2)c1 [Example 206, N-[3-[2-(difluoromethoxy)-5-[3-[2-(dimethylamino)ethyl-methyl-carbamoyl]phenoxy]phenyl]-1-methyl-pyrazol-4-yl]pyrazolo[1,5-a]pyrimidine-3-carboxamide]",0.89,0.88,45
"Cn1cc(NC(=O)c2cnn3cccnc23)c(-c2cc(Oc3cnn(CC4(O)CNC4)c3)ccc2OC(F)F)n1 [Example 122, N-[3-[2-(difluoromethoxy)-5-[1-[(3-hydroxyazetidin-3-yl)methyl]pyrazol-4-yl]oxy-phenyl]-1-methyl-pyrazol-4-yl]pyrazolo[1,5-a]pyrimidine-3-carboxamide]",0.52,0.56,390
"Cn1cc(NC(=O)c2cnn3cccnc23)c(-c2cc(Oc3cnn(CCBr)c3)ccc2OC(F)F)n1 [Example 214, N-[3-[5-[1-(2-bromoethyl)pyrazol-4-yl]oxy-2-(difluoromethoxy)phenyl]-1-methyl-pyrazol-4-yl]pyrazolo[1,5-a]pyrimidine-3-carboxamide]",1.1,0.68,–
"Cn1cc(NC(=O)c2cnn3cccnc23)c(-c2cc(Oc3cnn(CCC4CO4)c3)ccc2OC(F)F)n1 (stereo not drawn) [Example 215, N-[3-[2-(difluoromethoxy)-5-[1-[2-(oxiran-2-yl)ethyl]pyrazol-4-yl]oxy-phenyl]-1-methyl-pyrazol-4-yl]pyrazolo[1,5-a]pyrimidine-3-carboxamide]",1.9,1.1,–
"Cn1cc(NC(=O)c2cnn3cccnc23)c(-c2cc(Oc3cnn(CCN4CCOCC4)c3)ccc2OC(F)F)n1 [Example 68, N-[3-[2-(difluoromethoxy)-5-[1-(2-morpholinoethyl)pyrazol-4-yl]oxy-phenyl]-1-methyl-pyrazol-4-yl]pyrazolo[1,5-a]pyrimidine-3-carboxamide]",6.2,2.9,–
"CNC(=O)c1cncc(Oc2ccc(OC(F)F)c(-c3nn(C)cc3NC(=O)c3cnn4cccnc34)c2)c1 [Example 158, N-[3-[2-(difluoromethoxy)-5-[[5-(methylcarbamoyl)-3-pyridyl]oxy]phenyl]-1-methyl-pyrazol-4-yl]pyrazolo[1,5-a]pyrimidine-3-carboxamide]",0.62,–,37
"CCCN(CCCO)Cc1ccc(Oc2ccc(OC(F)F)c(-c3nn(C)cc3NC(=O)c3cnn4cccnc34)c2)cc1 [Example 161, N-(3-(2-(difluoromethoxy)-5-(4-(((3-hydroxypropyl) (propyl)amino)methyl)phenoxy)phenyl)-1-methyl-1H-pyrazol-4-yl)pyrazolo[1,5-a]pyrimidine-3-carboxamide]",6,2.2,–
